Patent US8729031B2, “Compounds” (priority 2009, dated 2014)
In brackets after ≈: the same amount, converted by molar mass.

Experiments:
[1] = test system: Streptococcus pneumoniae; experiment: microbe, parasite or virus in culture; type: cell-based
Experimental: (§1) Susceptibility testing with the exception of Streptococcus pneumoniae was performed by two-fold serial dilutions in Mueller Hinton Broth supplemented with 50 μg/mL Ca^2+. Susceptibility testing of S. pneumoniae was performed by two-fold serial dilutions in Brain-Heart-Infusion Broth supplemented with 50 μg/mL Ca^2+.

[2] = test system: E. faecalis; experiment: MIC susceptibility testing, vancomycin resistant Enterococci (E. faecalis); type: cell-based; details: E. faecalis 9758512, vancomycin resistant
Experimental: as §1

[3] = test system: E. faecium; experiment: MIC susceptibility testing, vancomycin resistant Enterococci (E. faecium); type: cell-based
Experimental: as §1

[4] = test system: Methicillin Resistant Staphylococcus aureus (MRSA, ATCC 33591); experiment: Neutropaenic mouse thigh infection model; type: in vivo; details: for antimicrobial effect in thigh infection: IV at 5, 10, 20, 30 and 40 mg/Kg×2
Experimental: In vivo efficacy of compounds of the present invention in the treatment of bacterial tissue infections was evaluated using a neutropaenic mouse thigh model. Groups of 6 male ICR mice weighing 24±2 g were used. Test animals were immunosuppressed by 2 intraperitoneal injections of cyclophosphamide, the first at 150 mg/Kg 4 days before infection (day-4) and the second at 100 mg/Kg 1 day before infection (day-1). On day 0, individual animals were inoculated intramuscularly (IM) into the right thigh of test animals with 1.15×10^5 CFU/mouse of Methicillin Resistant Staphylococcus aureus (MRSA, ATCC 33591) suspended in 100 μL of sterile PBS, pH 7.4. Vehicle and test substances were administered intravenously (IV) at a dose volume of 8 mL/Kg, 2 and 14 hours after thigh infection. Example 1a (Compound I) and vancomycin were dissolved in 15% hydroxypropyl-β-cyclodextrin/4.4% glucose/1 mM potassium phosphate buffer, pH 7.0 and administered at doses of 5, 10, 20, 30 and 40 mg/Kg. At 26 hours after inoculation, muscle of the right thigh of each test mouse was harvested. From an additional group with no treatment, muscle of the right thigh was harvested at 2 hours after inoculation for the basal CFU determination. The removed muscle tissues were then homogenized in 3-4 mL of PBS, pH 7.4 with a ceramic mortar. Homogenates of 0.1 mL were used for serial 10-fold dilutions and plated on Mueller Hinton broth in 1.5% Bacto agar for CFU determination.

[5] = In vivo plasma half-life in mice; details: mouse, 29.76 mg/kg, male CD-1 mice, IV, 9.3 mL/Kg of 3.2 mg/mL solution
Experimental: The in vivo half-life of Example 1a in mice was determined by measurement of its plasma concentrations at various time points following IV dosing. 18 male CD-1 mice aged 7-9 weeks were dosed IV with a 9.3 mL/Kg dose of a 3.2 mg/mL solution of Example 1a in 15% hydroxyl-propyl-β-cyclodextrin/4.4% glucose/1 mM potassium phosphate (pH=7.6). Plasma samples were obtained at 10, 20, 30, 60, 120 and 240 min post-dose, sampling from 3 animals at each time point. Concentrations of Example 1a in plasma were determined by LC-MS quantification.

[6] = test system: Staphylococcus aureus methicillin resistant ATCC 33591; experiment: Mouse bacteraemia model; type: in vivo
Experimental: Groups of 6 male CD-1 (Crl.) derived mice weighing 24±2 g were used. Mice were inoculated intraperitoneally (IP) with an LD90-100 of Staphylococcus aureus methicillin resistant ATCC 33591 (1.1×10^7CFU/mouse) in 0.5 mL of BHI broth containing 5% mucin. The compound of example 1a and vancomycin were dissolved in 15% HPbetaCD/4.4% glucose/0.5 mM KH2PO4, pH 5.0 at doses of 1, 3, 5, 10 and 20 mg/Kg and were administered subcutaneously (SC) to test animals at 0, 2 and 24 hour(s) after bacteria challenge. The dosing volume was 5 mL/Kg. Mortality was recorded once daily for 7 days. The ED50 for each compound was determined by nonlinear regression.

Q: With `CC[C@H](C)[C@@H]1NC(=O)[C@@H]2NC(=O)[C@H](CC(C)C)NC(=O)[C@H](NC(=O)[C@@H]3CSC[C@@H](N)C(=O)N[C@@H](CO)C(=O)NCC(=O)N[C@@H](Cc4c[nH]c5ccccc45)C(=O)N[C@@H](C(C)C)C(=O)N3)[C@H](C)SC[C@H](NC(=O)[C@H](CCC(=O)O)NC1=O)C(=O)NCC(=O)N[C@H]1C(=O)N[C@@H](CC(C)C)C(=O)N[C@@H](C(C)C)C(=O)N[C@@H](CS[C@H]2C)C(=O)N[C@@H](C)C(=O)N[C@H](C(=O)NCc2cc(Cl)cc(Cl)c2)CS[C@H]1C` [Example 1, Deoxyactagardine B (3,5-dichlorobenzylamine)monocarboxamide] as the compound, how does the MIC ([1]; isolate QB37301, penicillin Resistant) read?
A: The MIC was 2 µg/mL (≈ 0.984 µM).

Q: And the MIC ([1]; isolate QB37302, penicillin Resistant)?
A: Its MIC is 1 µg/mL (≈ 0.492 µM).

Q: What about the MIC ([1]; isolate QB37303, penicillin Intermediate) of the same compound?
A: The MIC was 0.25 µg/mL (≈ 0.123 µM).

Q: What about the MIC ([1]; isolate QB37304, penicillin Susceptible) of the same compound?
A: Its MIC is 0.25 µg/mL (≈ 0.123 µM).

Q: What about the MIC ([1]; isolate QB37305, penicillin Susceptible) of the same compound?
A: Its MIC is 1 µg/mL (≈ 0.492 µM).

Q: What about the MIC ([1]; isolate QB37306, penicillin Susceptible) of the same compound?
A: Its MIC is 0.25 to 0.5 µg/mL.

Q: What about the MIC ([1]; isolate QB37307, penicillin Intermediate) of the same compound?
A: The MIC was 0.5 to 1 µg/mL.

Q: And the MIC ([1]; isolate QB37308, penicillin Susceptible)?
A: Its MIC is 0.25 to 0.5 µg/mL.

Q: What about the MIC ([1]; isolate QB37309, penicillin Resistant) of the same compound?
A: Its MIC is 2 µg/mL (≈ 0.984 µM).

Q: And the MIC ([1]; isolate QB37310, penicillin Resistant)?
A: The MIC was 0.25 µg/mL (≈ 0.123 µM).

Q: What about the MIC ([1]; isolate QB37311, penicillin Resistant) of the same compound?
A: Its MIC is 0.03 µg/mL (≈ 0.0148 µM).

Q: What about the MIC ([1]; isolate QB37312, penicillin Intermediate) of the same compound?
A: Its MIC is 0.5 µg/mL (≈ 0.246 µM).

Q: And the MIC ([1]; isolate QB37313, penicillin Susceptible)?
A: The MIC was 0.03 µg/mL (≈ 0.0148 µM).

Q: And the MIC ([1]; isolate QB37314, penicillin Resistant)?
A: The MIC was 1 µg/mL (≈ 0.492 µM).

Q: And the MIC ([1]; isolate QB37315, penicillin Susceptible)?
A: Its MIC is 0.25 µg/mL (≈ 0.123 µM).

Q: What about the MIC ([1]; isolate QB37316, penicillin Susceptible) of the same compound?
A: Its MIC is 2 µg/mL (≈ 0.984 µM).

Q: What about the MIC ([1]; isolate QB37317, penicillin Susceptible) of the same compound?
A: Its MIC is 0.25 µg/mL (≈ 0.123 µM).

Q: What about the MIC ([1]; isolate QB37318, penicillin Resistant) of the same compound?
A: The MIC was 0.25 µg/mL (≈ 0.123 µM).

Q: What about the MIC ([1]; isolate QB37319, penicillin Resistant) of the same compound?
A: The MIC was 1 µg/mL (≈ 0.492 µM).

Q: And the MIC ([1]; isolate QB37320, penicillin Intermediate)?
A: Its MIC is 1 µg/mL (≈ 0.492 µM).

Q: And the MIC [2]?
A: Its MIC is 8 µg/mL (≈ 3.94 µM).

Q: And the MIC ([3]; E. faecium 7662769, vancomycin resistant)?
A: The MIC was 8 µg/mL (≈ 3.94 µM).

Q: And the MIC ([3]; E. faecium 7860190, vancomycin resistant)?
A: The MIC was 4 to 8 µg/mL.

Q: What about the MIC ([3]; E. faecium 9710577, vancomycin resistant) of the same compound?
A: The MIC was 8 µg/mL (≈ 3.94 µM).

Q: What does the source list for `CC[C@H](C)[C@@H]1NC(=O)[C@@H]2NC(=O)[C@H](CC(C)C)NC(=O)[C@H](NC(=O)[C@@H]3CSC[C@@H](N)C(=O)N[C@@H](CO)C(=O)NCC(=O)N[C@@H](Cc4c[nH]c5ccccc45)C(=O)N[C@@H](C(C)C)C(=O)N3)[C@H](C)SC[C@H](NC(=O)[C@H](CCC(=O)O)NC1=O)C(=O)NCC(=O)N[C@H]1C(=O)N[C@@H](CC(C)C)C(=O)N[C@@H](C(C)C)C(=O)N[C@@H](CS[C@H]2C)C(=O)N[C@@H](C)C(=O)N[C@H](C(=O)NCc2cc(Cl)cc(Cl)c2)CS[C@H]1C` [Example 1a]?
A: antimicrobial effect in thigh infection [4]: significant antimicrobial effect; reduction in CFU/g ([4]; IV ×2 (2 and 14 h), 10 mg/kg and above, thigh muscle at 26 h): > 1000 fold; half-life [5]: ~2 h; survival rate ([6]; 3 mg/Kg, SC): 100%; antimicrobial effect against S. aureus (MR) in mice ([6]; 3, 5, 10 and 20 mg/Kg×3, SC): significant antimicrobial effect; increase in survival rate ([6]; 3, 5, 10 and 20 mg/Kg×3, SC): at least 50%; estimated ED50 ([6]; SC at 0, 2 and 24 h after challenge, mortality over 7 days, nonlinear regression): 1.07 mg/kg

Q: With `CN[C@H](CC(C)C)C(=O)N[C@H]1C(=O)N[C@@H](CC(N)=O)C(=O)N[C@H]2C(=O)N[C@H]3C(=O)N[C@H](C(=O)N[C@H](C(=O)O)c4cc(O)cc(O)c4-c4cc3ccc4O)[C@H](O)c3ccc(c(Cl)c3)Oc3cc2cc(c3O[C@@H]2O[C@H](CO)[C@@H](O)[C@H](O)[C@H]2O[C@H]2C[C@](C)(N)[C@H](O)[C@H](C)O2)Oc2ccc(cc2Cl)[C@H]1O` [vancomycin, reference compound] as the compound, how does the “antimicrobial effect in thigh infection” value [4] read?
A: Its value is “significant antimicrobial effect”.

Q: What about the “reductions of CFU/g” value ([4]; IV ×2 (2 and 14 h), 30 mg/kg and above, thigh muscle at 26 h) of the same compound?
A: Its value is over 100 fold.

Q: What about the “antimicrobial effect against S. aureus (MR) in mice” value ([6]; 3, 5, 10 and 20 mg/Kg×3, SC) of the same compound?
A: Its value is “significant antimicrobial effect”.

Q: What about the ED50 ([6]; Staphylococcus aureus, ATCC33591, SC at 0, 2 and 24 h after challenge, mortality over 7 days, nonlinear regression, read-out: estimated ED50) of the same compound?
A: The ED50 was 3 mg/kg.
